Measurements reported in article PMC3313020 (Cancer Chemotherapy and Pharmacology, 2011).
Several values for one entry are separate records, joined by “and”; a condition that tells them apart may be missing. Equal values may be shown once. Read-outs that look alike come from different tables or passages of the source.

Experiments:
[1] = Steady-state plasma pharmacokinetics; type: in vivo, human
[2] = single-agent enzastaurin 525 mg orally daily; cited from earlier work
[3] = tested on: metastatic NSCLC; settings: single agent, second- or third-line; cited from earlier work
[4] = tested on: NSCLC; settings: cited from earlier work
[5] = tested on: advanced NSCLC; settings: advanced NSCLC progressed after first-line chemotherapy; cited from earlier work
[6] = 150 mg erlotinib daily with 250 mg enzastaurin, geometric mean (CV%), n 3
[7] = 150 mg erlotinib daily with 500 mg enzastaurin, geometric mean (CV%), n 11

SMILES | C av,ss ([1]; enzastaurin 500 mg once daily with erlotinib 150 mg daily, geometric mean (CV%), N 12) | Tmax ([1]; human, plasma, oral) | AUC ([1]; human, plasma, oral, AUCτ,ss, enzastaurin 500 mg once daily with erlotinib 150 mg daily, geometric mean (CV%), N 12) | Cmax ([1]; human, plasma, oral, C max,ss, enzastaurin 500 mg once daily with erlotinib 150 mg daily, geometric mean (CV%), N 12) | AUCτ,ss [2] | CLss/F [2] | patients with prolonged stabilization >6 months [3] | C av,ss [1, 6] | CLss/F [1, 6] | C av,ss [1, 7] | CLss/F [1, 7] | hazard ratio (overall survival vs placebo) ([4]; P < 0.001) | response rate ([4]; unselected population, vs placebo <1%, P < 0.001) | overall survival ([4]; vs placebo 4.7 months) | overall response rate [5]
Cn1cc(C2=C(c3cn(C4CCN(Cc5ccccn5)CC4)c4ccccc34)C(=O)NC2=O)c2ccccc21 [Enzastaurin] | 750 (71) nmol/L | 4.04 h | 18 µM·h | 1600 nM | 23,600 nmol × h/L | 40.3 L/h | 11% |  |  |  |  |  |  |  | 
C#Cc1cccc(Nc2ncnc3cc(OCCOC)c(OCCOC)cc23)c1 [erlotinib] |  |  |  |  |  |  |  | 1,030 (19) ng/mL | 6.07 L/h and 6.07 (19) L/h | 1,090 (45) ng/mL | 5.75 L/h and 5.75 (45) L/h | 0.70 | 8.9% | 6.7 months | 6.2%
